# Test results reported in PMC6737244, “Cathelicidin Peptides Restrict Bacterial Growth via Membrane Perturbation and Induction of Reactive Oxygen Species” (mBio, 2019).
# Ends that are not written are not given here.
# What was measured:
# P. aeruginosa = experiment: Growth of cultures (OD600) with sublethal peptide; conditions: 20 nM, 2 h, CAMHB
# V. cholerae = experiment: Survival (CFU) with B22 with or without ROS scavengers or SodA
# Description: The membrane-permeable iron chelating agent 2,2′-dipyridyl (DP) efficiently chelates free Fe^2+ and the scavenger thiourea (TU) directly quenches hydroxyl radicals generated by the Fenton reaction.
# To inhibit Fenton chemistry in the cytoplasm, cells were pretreated with 75 μM concentration of the membrane-permeable agent 2,2′-dipyridyl (DP), which efficiently chelates free Fe^2+, and 150 μM concentration of the scavenger thiourea (TU), which directly quenches Fenton-generated hydroxyl radicals ([50]). These concentrations of DP and TU were confirmed not to affect bacterial growth.
# Vibrio cholerae C6075 = format: cell-based; conditions: CAMHB, 16 to 18 h, at least three independent assays
# Description: (§1) MICs were determined by using the broth microdilution method based on the general recommendations of the Clinical and Laboratory Standards Institute (CLSI). Bacteria were grown in CAMHB overnight. They were then diluted into fresh medium the following morning and grown to early log phase. The cultures were then diluted to approximately 5 × 10^5 CFU ml^−1, and 100 μl was added to sterile 96-well polypropylene microtiter plates (Corning, NY, USA) preloaded with twofold dilutions of antimicrobial peptides. […] All MIC assays were determined from at least three independent assays.
# Vibrio cholerae AC53 = format: cell-based; conditions: CAMHB, 16 to 18 h, at least three independent assays
# Description: as §1
# E. coli UTI89 = experiment: Differential gene expression after peptide exposure; format: cell-based, Escherichia coli; conditions: 30 nM, 5-min exposure
# Description: To determine the mechanism by which sublethal concentrations of cathelicidins affect bacterial cell physiology, we sought to analyze gene expression prior to and after a 5-min exposure to 30 nM B22a. The chromosomal integron of V. cholerae contains hundreds of repeats and horizontally acquired genes of unknown function ([20][–][23]). Moreover, many of these genes are duplicated, which can further complicate interpreting gene expression patterns. We elected to examine peptide-induced expression changes in E. coli to simplify gene identification and assignment of potential functions. Significant changes in expression were identified for genes whose products participate in global processes such as protein synthesis, protein folding, protein secretion, intracellular pH, membrane modification, c-di-GMP production, peptidoglycan biosynthesis, respiration, and detoxification of reactive oxygen species (ROS) (Table 2). Perturbation of peptidoglycan synthesis was consistent with the membrane blebbing we observed following B22 and B22a treatment. Other notable changes included arnF, the product of which modifies the lipid A moiety of lipopolysaccharide (LPS) with 4-amino-4-deoxy-L-arabinose (L-Ara4N) to confer resistance to polymyxin and cationic antimicrobial peptides in E. coli and Salmonella enterica serotype Typhimurium ([24], [25]). c-di-GMP-dependent Psl exopolysaccharide production is part of the first line of defense against reactive oxygen species in P. aeruginosa ([26]). The respiratory chain is a major source of periplasmic ROS such as superoxide (O2^−) and hydrogen peroxide (H2O2) ([27]), and cytosolic flavoenzymes such as fumarate reductase (Frd) can generate O2^−, H2O2, and hydroxyl radical (^·OH) that damages membrane lipids, DNA, and proteins. ArcA is important for regulating bacterial resistance to ROS under aerobic conditions, and OxyR directly senses H2O2 to induce expression of a slew of genes, including ahpC and gshA, to counter H2O2 accumulation ([28], [29]).
# Escherichia coli IU342 = experiment: MIC, broth microdilution; format: cell-based; conditions: CAMHB, 16 to 18 h, at least three independent assays
# Description: as §1
substance,measurement,setting,value
FRKKLKKLFKKLSPVIPLLKLG [B22],Initial growth of P. aeruginosa relative to control,P. aeruginosa,significantly reduced
same,Killing of V. cholerae overproducing SodA,V. cholerae; 2.5 μM B22,completely suppressed
same,Decrease in survival of V. cholerae overexpressing SodA,V. cholerae; 5 μM B22,10 fold
same,Decrease in survival,"V. cholerae; V. cholerae, 2.5 μM B22",3 log10 units
same,Increase in survival by preincubation with 75 μM DP and 150 mM TU in combination,"V. cholerae; V. cholerae, prior to addition of B22",13 fold
FRKKLKKLFKKLSPVIPLLKLG-NH2 [B22a],MIC,Vibrio cholerae C6075,4 µM
same,MIC,Vibrio cholerae AC53,4 µM
same,"Log2 fold change, ahpC (UTI89_C0608)",E. coli UTI89,−1.35
same,"Log2 fold change, ansB (UTI89_C3346)",E. coli UTI89,−3.26
same,"Log2 fold change, arcA (UTI89_C5174)",E. coli UTI89,−1.55
same,"Log2 fold change, ardB (UTI89_C2011)",E. coli UTI89,−1.39
same,"Log2 fold change, arnF (yfbJ) (UTI89_C2541)",E. coli UTI89,1.44
same,"Log2 fold change, arrD (UTI89_C1304)",E. coli UTI89,2.56
same,"Log2 fold change, asnA (UTI89_C4299)",E. coli UTI89,−1.38
same,"Log2 fold change, asnS (UTI89_C1002)",E. coli UTI89,−1.19
same,"Log2 fold change, aspA (UTI89_C4736)",E. coli UTI89,−2.31
same,"Log2 fold change, ccmH (UTI89_C2472)",E. coli UTI89,−1.19
same,"Log2 fold change, citB (UTI89_C0624)",E. coli UTI89,−2.71
same,"Log2 fold change, cspA (UTI89_C4097)",E. coli UTI89,1.44
same,"Log2 fold change, cspG (UTI89_C1051)",E. coli UTI89,1.67
same,"Log2 fold change, cybC (UTI89_C4840)",E. coli UTI89,−2.73
same,"Log2 fold change, cyoD (UTI89_C0453)",E. coli UTI89,1.80
same,"Log2 fold change, cysM (UTI89_C2754)",E. coli UTI89,−2.60
same,"Log2 fold change, dapC (UTI89_C3862)",E. coli UTI89,−1.97
same,"Log2 fold change, dcuA (UTI89_C4735)",E. coli UTI89,−2.63
same,"Log2 fold change, dgkA (UTI89_C4612)",E. coli UTI89,−1.71
same,"Log2 fold change, eno (UTI89_C3148)",E. coli UTI89,−2.02
same,"Log2 fold change, evgS (UTI89_C2702)",E. coli UTI89,1.30
same,"Log2 fold change, fabA (UTI89_C1019)",E. coli UTI89,−1.48
same,"Log2 fold change, fdoG (UTI89_C4481)",E. coli UTI89,1.13
same,"Log2 fold change, fimX (UTI89_C0338)",E. coli UTI89,1.57
same,"Log2 fold change, frdA (UTI89_C4754)",E. coli UTI89,−1.78
same,"Log2 fold change, frdB (UTI89_C4753)",E. coli UTI89,−2.97
same,"Log2 fold change, fusA (UTI89_C3842)",E. coli UTI89,−1.22
same,"Log2 fold change, gadX (UTI89_C4048)",E. coli UTI89,1.74
same,"Log2 fold change, gapA (UTI89_C1975)",E. coli UTI89,−2.34
same,"Log2 fold change, gmhB (UTI89_C0216)",E. coli UTI89,−2.02
same,"Log2 fold change, gnd (UTI89_C2302)",E. coli UTI89,−1.41
same,"Log2 fold change, gshA (UTI89_C3050)",E. coli UTI89,−1.92
same,"Log2 fold change, gsk (UTI89_C0505)",E. coli UTI89,1.20
same,"Log2 fold change, holE (UTI89_C2044)",E. coli UTI89,2.85
same,"Log2 fold change, hslJ (UTI89_C1622)",E. coli UTI89,−1.15
same,"Log2 fold change, manY (UTI89_C2016)",E. coli UTI89,−1.16
same,"Log2 fold change, marR (UTI89_C1833)",E. coli UTI89,1.29
same,"Log2 fold change, mcbR (UTI89_C1669)",E. coli UTI89,2.96
same,"Log2 fold change, mdoG (UTI89_C1172)",E. coli UTI89,1.63
same,"Log2 fold change, mrcB (UTI89_C0165)",E. coli UTI89,1.85
same,"Log2 fold change, mrp (UTI89_C2387)",E. coli UTI89,−1.64
same,"Log2 fold change, mtgA (UTI89_C3644)",E. coli UTI89,1.90
same,"Log2 fold change, napC (UTI89_C2480)",E. coli UTI89,−2.52
same,"Log2 fold change, narP (UTI89_C2471)",E. coli UTI89,−2.02
same,"Log2 fold change, ompC (UTI89_C2497)",E. coli UTI89,−1.11
same,"Log2 fold change, ompT (UTI89_C0566)",E. coli UTI89,1.11
same,"Log2 fold change, orf (UTI89_C0124)",E. coli UTI89,1.89
same,"Log2 fold change, orf (UTI89_C1095)",E. coli UTI89,1.47
same,"Log2 fold change, orf (UTI89_C1152)",E. coli UTI89,1.40
same,"Log2 fold change, orf (UTI89_C1286)",E. coli UTI89,1.09
same,"Log2 fold change, orf (UTI89_C3928)",E. coli UTI89,1.10
same,"Log2 fold change, orf (UTI89_C4380)",E. coli UTI89,−1.48
same,"Log2 fold change, oxyR (UTI89_C4554)",E. coli UTI89,1.11
same,"Log2 fold change, pflB (UTI89_C0974)",E. coli UTI89,−2.71
same,"Log2 fold change, ptsK (UTI89_C2748)",E. coli UTI89,−1.06
same,"Log2 fold change, rpmE (UTI89_C4521)",E. coli UTI89,1.08
same,"Log2 fold change, rtcA (UTI89_C3920)",E. coli UTI89,−2.90
same,"Log2 fold change, sdaB (UTI89_C3168)",E. coli UTI89,−3.16
same,"Log2 fold change, sdaC (UTI89_C3167)",E. coli UTI89,−2.21
same,"Log2 fold change, secB (UTI89_C4151)",E. coli UTI89,−2.45
same,"Log2 fold change, secY (UTI89_C3746)",E. coli UTI89,−1.36
same,"Log2 fold change, serS (UTI89_C0908)",E. coli UTI89,−2.29
same,"Log2 fold change, torY (UTI89_C2077)",E. coli UTI89,1.03
same,"Log2 fold change, tpiA (UTI89_C4503)",E. coli UTI89,−1.16
same,"Log2 fold change, uspE (UTI89_C1604)",E. coli UTI89,1.28
same,"Log2 fold change, wbgM (UTI89_C2303)",E. coli UTI89,1.29
same,"Log2 fold change, xdhC (UTI89_C3253)",E. coli UTI89,−2.37
same,"Log2 fold change, yaaY (UTI89_C0026)",E. coli UTI89,1.32
same,"Log2 fold change, yacH (UTI89_C0130)",E. coli UTI89,1.39
same,"Log2 fold change, yaiS (UTI89_C2239)",E. coli UTI89,1.92
same,"Log2 fold change, ybcS1 (UTI89_C1303)",E. coli UTI89,2.14
same,"Log2 fold change, ybfN (UTI89_C0686)",E. coli UTI89,1.22
same,"Log2 fold change, ybjD (UTI89_C0880)",E. coli UTI89,1.31
same,"Log2 fold change, ycaD (UTI89_C0972)",E. coli UTI89,−1.66
same,"Log2 fold change, yciL (UTI89_C1537)",E. coli UTI89,−1.27
same,"Log2 fold change, ydeH (UTI89_C1760)",E. coli UTI89,4.38
same,"Log2 fold change, ydiU (UTI89_C1899)",E. coli UTI89,1.27
same,"Log2 fold change, yecR (UTI89_C2105)",E. coli UTI89,−2.29
same,"Log2 fold change, yehE (UTI89_C2386)",E. coli UTI89,−1.09
same,"Log2 fold change, yfaE (UTI89_C2517)",E. coli UTI89,−2.34
same,"Log2 fold change, yfbR (UTI89_C2573)",E. coli UTI89,−1.89
same,"Log2 fold change, yfcD (UTI89_C2583)",E. coli UTI89,−1.88
same,"Log2 fold change, yfeK (UTI89_C2753)",E. coli UTI89,−1.41
same,"Log2 fold change, ygdI (UTI89_C3181)",E. coli UTI89,1.30
same,"Log2 fold change, ygdI (UTI89_C3182)",E. coli UTI89,1.31
same,"Log2 fold change, ygdR (UTI89_C3236)",E. coli UTI89,1.12
same,"Log2 fold change, yghU (UTI89_C3411)",E. coli UTI89,−2.15
same,"Log2 fold change, yhbQ (UTI89_C3582)",E. coli UTI89,−1.70
same,"Log2 fold change, yhbW (UTI89_C3587)",E. coli UTI89,−1.14
same,"Log2 fold change, yhcO (UTI89_C3670)",E. coli UTI89,1.80
same,"Log2 fold change, yhdL (UTI89_C3736)",E. coli UTI89,1.09
same,"Log2 fold change, yjbK (UTI89_C4616)",E. coli UTI89,1.10
same,"Log2 fold change, yjcC (UTI89_C4647)",E. coli UTI89,−1.25
same,"Log2 fold change, yjeH (UTI89_C4739)",E. coli UTI89,−1.27
same,"Log2 fold change, yjeI (UTI89_C4742)",E. coli UTI89,−1.76
same,"Log2 fold change, yjgF (ridA) (UTI89_C4848)",E. coli UTI89,2.24
same,"Log2 fold change, ykgH (UTI89_C0333)",E. coli UTI89,−2.93
same,"Log2 fold change, ymdC (UTI89_C1169)",E. coli UTI89,1.04
same,"Log2 fold change, ymgA (UTI89_C1348)",E. coli UTI89,1.77
same,"Log2 fold change, ynfJ (UTI89_C1779)",E. coli UTI89,−1.82
same,"Log2 fold change, ynhG (UTI89_C1870)",E. coli UTI89,1.34
same,"Log2 fold change, yqgD (UTI89_C3330)",E. coli UTI89,1.11
same,"Log2 fold change, yrdA (UTI89_C3724)",E. coli UTI89,1.02
same,"Log2 fold change, yrdE (UTI89_C3686)",E. coli UTI89,−2.10
same,MIC,Escherichia coli IU342,2 µM
